Assay results published in patent publication US7728038B2, “Methods for chelation therapy” (priority 2004, dated 2010).
Marks after values point to notes of the source that are not given here.

How the values were obtained:
[1] = n-octanol/Tri-HCl buffer system; cited from earlier work
[2] = biological target: T1, horse spleen ferritin (Equus caballus, UniProt P02791+Q8MIP0); experiment: Removal of iron from ferritin by incubation with chelators; type: biochemical; settings: Tris buffer 25 mM, pH 7.5, 37° C., chelator 0.47 mM, DFO 0.19 mM, up to 72 h
T1 construct: incubation of horse spleen ferritin with chelators 1a and 1b; from tissue; host or cells: horse spleen
Description: These chelators reacted with iron (III) forming purple complexes (UV: λmax=456 nm (ε4.6×10^3) for 1a; λmax=459 nm (λ4.45×10^3) for 1b) which have the chelator iron stoichiometry of 3:1. […] The chelators can also react with Al and Zn forming white powder complexes, and with Cu forming a green colored complex. These complexes were very soluble in water. […] The removal of iron from ferritin was determined by incubation of horse spleen ferritin with chelators 1a and 1b in Tris buffer (25 mM, pH 7.5, 37° C.) at a concentration of 0.47 mM, using DFO (0.19 mM) as a reference chelator similar to that described by Kontoghiorghes. The concentrations of the iron complex were measured spectrophotometrically from λmax values. The kinetics of iron release were investigated for a of period up to 72 h.

[3] = tested on: ovariectomized (Ovx) rat; experiment: Free iron contents in humeral cortical bone of Ovx rats by EPR after oral chelation treatment; type: in vivo; settings: chelator 100 μmole/kg oral gavage three times a week for 9 weeks, FIG. 1
Description: Animal and treatment: Three-month-old female Sprague-Dawley rats (Charles River Laboratory) were obtained and housed with a 12 h light-dark cycle at constant room temperature (24° C.) and humidity. The rats were fed standard rat chow (#8640 Harland Teklad, Madison, Wis.) and water ad libitum. When aged 6 month, the rats were divided into four groups. One group was sacrificed as baseline controls at the beginning of the experiment. The remaining groups were sham operated (one group) or bilaterally ovariectomized (two groups) via a dorsal approach. Chelation treatment started from the second day after surgery and was given three times a week for 9 weeks. The chelator (1-N-Docosyltriethylenetetraminepentaacetic acid, GL22) was dissolved in saline (pH 7.5) and was administrated by oral gavage (100 μmole/kg), while control groups including the sham and Ovx operated animals received vehicle only in the same manner. […]
Iron measurement: Total iron contents of femoral cortical bones of aged women were assessed using ICP-OES performed by Galbraith Laboratories, Inc. (Knoxville, Tenn.). […] Each sample of about 100 mg was mixed with acid solution, microwave digested and measured. […]

[4] = tested on: heavy metal overload animals; settings: in vivo; cited from earlier work
[5] = tested on: ovariectomized (Ovx) rat; experiment: Whole body BMD by dual x-ray absorptiometry, OVX rats treated with GL22; type: in vivo
Description: (§1) In another experiment, four groups of 3 or 4 rats (Sprague-Dawley, Charley River) each were used. The baseline group consisted of 3 normal rats, which were sacrificed at six months of age. The humeral bones were collected for EPR free iron and LLOFR measurements and the whole body bone mineral density (BMD) was assessed by Dual x-ray absorptiometry (Hologic QDR1000 Plus) before necropsy. The other three groups were sham ovariectomized (one group) or ovariectomized (two groups) at the same age. The operation (a dorsal approach of bilateral ovariectomy) was under aseptic conditions with Ketamine-Xylazine anesthesia. One group of OVX animals was treated by chelation therapy with 30 μmol/kg body weight of GL22 in saline solution (pH 7.5). The GL22 was orally administered by intubation with a blunt-ended stainless steel needle three times a week. The other two groups received the saline solution without chelator by the same manner. All groups were sacrificed at 60 days post-surgery to collect humeral bones for EPR free iron and LLOFR measurements. Before the termination, whole body BMD was measured.

[6] = tested on: ovariectomized (Ovx) rat; experiment: Micro-CT morphometry of lumbar vertebra cancellous bone in chelator-treated Ovx rats; type: in vivo
Description: (§2) Animal and treatment: Three-month-old female Sprague-Dawley rats (Charles River Laboratory) were obtained and housed with a 12 h light-dark cycle at constant room temperature (24° C.) and humidity. The rats were fed standard rat chow (#8640 Harland Teklad, Madison, Wis.) and water ad libitum. When aged 6 month, the rats were divided into four groups. One group was sacrificed as baseline controls at the beginning of the experiment. The remaining groups were sham operated (one group) or bilaterally ovariectomized (two groups) via a dorsal approach. Chelation treatment started from the second day after surgery and was given three times a week for 9 weeks. The chelator (1-N-Docosyltriethylenetetraminepentaacetic acid, GL22) was dissolved in saline (pH 7.5) and was administrated by oral gavage (100 μmole/kg), while control groups including the sham and Ovx operated animals received vehicle only in the same manner.
(§3) Tissue preparation and analyses: Humeral bone was fixed in 70% ethanol for measurement of tissue iron by EPR. Lumbar vertebrae were first fixed in 10% phosphate buffered formalin for 24 hours, then dehydrated in ascending concentrations of ethanol and embedded in methyl methacrylate. The blocks were trimmed for peripheral computed tomography (pQCT), micro-computed tomography (μ-CT) and later prepared for histomorphometric studies.
μ-CT measurement: Lumbar vertebra were scanned in all three dimensions with a high-resolution μ-CT (10 μm) (Scanco μCT-40, Scanco Medical, Bassersdorf, Switzerland). The complete third vertebral bodies were scanned with 600 slices, each containing 2048×2048 pixels. The trabecular and cortical part of the bodies were separated with semi-automatically drawn contours. The resulting grey-sclae images were segmented using a low-pass filter to remove noice and a fixed threshold to extract the mineralized bone phase. From the binary images, structural indices were assessed with three-dimensional techniques without model-assumptions of the appearance of trabecular bone and were calculated by measuring three-dimensional distances directly in the travecular network and taking the mean over all voxels. The region of interest was travecular bone in the lumbar vertebral body, excluding the prmary songiosa area, 0.5 mm from the growth plate.

[7] = tested on: ovariectomized (Ovx) rat; experiment: EPR free iron (BC) and LLOFR (NC) of humeral bone, OVX rats treated with GL22; type: in vivo; settings: GL22 30 μmol/kg orally three times a week, 60 days post-surgery
Description: as §1

[8] = tested on: ovariectomized (Ovx) rat; experiment: pQCT densitometry of lumbar vertebra BMD in chelator-treated Ovx rats; type: in vivo
Description: as §2, §3
pQCT densitometry: The L3 vertebra bodies were examined by pQCT densitometry (Norland Stratec XCT 960A, Birkenfeld, Germany) to determine bone mineral density (BMD) for the part from the middle point to the caudal end, excluding the primary spongiosa. A scout scan of the vertebra was performed, and on the scout view, a reference line was manually placed such that the cross-sectional slice passed through at a distance of 1, 2, 3 and 4 mm from caudal end of lumbar vertebra body. The voxel size was 196 μm. Contour mode 2, Peel mode 20, Cortical mode 2 and threshold 570 for cortical bone was chosen for the analysis. The mean BMD for all of the measured slices was then calculated.

[9] = tested on: iron overload rats; experiment: Iron excretion in feces of iron overload rats treated by GL22 (GFAA); type: in vivo, rat; settings: 30 μmol GL22 in low iron diet each day for 14 days
Description: 12 Male Sprague-Dawley rats from Simonsen Laboratories (Gilroy, Calif.) at about 80 days of age were given an intravenous injection of 241-Am-citrate in a total volume of 0.2 mL. For chelator treatment, the GL22 was dissolved in saline and the pH was adjusted to 7.5 with NaOH. Fourteen days after administration of 241-Am-citrate, a chelator food ration was started at 50 μmol/rat/day for 90 days orally, while the same food ration without chelator was given to controls. 50 μmol of chelator was added to the daily food ration (25 g). The total body retention of 241-Am was measured using a whole body-counter and after necropsy the skeletal tissues were counted for 241-Am content. The experimental protocol was described in an earlier publication. […] The same results have also been found for 239-Pu. Moreover, the excretion of iron from iron overloaded male rats that were treated by chelator was tested. […] Then, a low iron diet (Teklab diet #80396) was given to the rats for 2 weeks as the baseline iron excretion reached plateau levels, which was determined by GFAA measurement of iron in feces. […] The ashed feces were dissolved in 4 mL of 3 N HCl and quantitatively transferred to a volumetric flask. […] The concentration of iron was determined by GFAA spectrophotometry (Perkin Elmer). […]

[10] = 241-Am retention in whole body and skeletal tissue of rats after GL22 treatment; type: in vivo; settings: GL22 50 μmol/rat/day in food for 90 days
Description: 12 Male Sprague-Dawley rats from Simonsen Laboratories (Gilroy, Calif.) at about 80 days of age were given an intravenous injection of 241-Am-citrate in a total volume of 0.2 mL. For chelator treatment, the GL22 was dissolved in saline and the pH was adjusted to 7.5 with NaOH. Fourteen days after administration of 241-Am-citrate, a chelator food ration was started at 50 μmol/rat/day for 90 days orally, while the same food ration without chelator was given to controls. 50 μmol of chelator was added to the daily food ration (25 g). The total body retention of 241-Am was measured using a whole body-counter and after necropsy the skeletal tissues were counted for 241-Am content. The experimental protocol was described in an earlier publication. […] The same results have also been found for 239-Pu. Moreover, the excretion of iron from iron overloaded male rats that were treated by chelator was tested. The same rats as above at the age of 180 days were given 10 mg of iron as iron-dextran (Sigma, St. Louis, Mo.) subcutaneously every 3 days for 6 weeks to induce iron overloading. Then, a low iron diet (Teklab diet #80396) was given to the rats for 2 weeks as the baseline iron excretion reached plateau levels, which was determined by GFAA measurement of iron in feces. The chelator treated rats were given 20 g of low iron diet with 30 μmol of GL22 and control rats were given just 20 g of low iron diet each day for 14 days. Feces were collected every day for determination of iron excretion. The samples of feces were placed in glazed porcelain crucibles, dried at 100° C. overnight and ashed in a muffle furnace at 550° C. for 18 h. The ashed feces were dissolved in 4 mL of 3 N HCl and quantitatively transferred to a volumetric flask. The crucibles were then rinsed twice with 5 ml of 0.36 N HCl. The concentration of iron was determined by GFAA spectrophotometry (Perkin Elmer). After 14 days of chelation treatment by oral administration there were significant increases in the amounts of iron found in the feces when compared with controls (Table 7).

[11] = tested on: ovariectomized (Ovx) rat; experiment: EPR free iron (BC) and LLOFR (NC) of humeral bone, OVX rats treated with estradiol; type: in vivo; settings: 17b-estradiol 10 μg/kg IP three times a week, 60 days post-surgery
Description: EPR-osseous tissue sample preparation and measurement: Samples of human femoral cortical bone preserved in 70% alcohol were initially crushed into large pieces (<1 mm) using a mortar and pestle. The granules were defatted with 10 changes of acetone and dried at 60° C. The samples then were further crushed and sieved to obtain a 250-600 micrometer fraction. The EPR measurement of approximately 100 mg of sample were made at 24° C. with values for g-factors of 2.00503±0.00019 (NC) and 2.00541±0.00085 (BC) and with widths of 0.916±0.0465 mT (NC) and 2.5 mT (BC) following a modification of known protocols.^74-75 A Bruker 300E spectrometer at 9.7 GHz was used for date collection.
Humeral bones from four groups of 3 or 4 rats (Sprague-Dawley, Charley River) each were evaluated. The baseline group consisting of 3 normal rats were sacrificed at six months of age using Ketamine-Xylazine anesthesia. The other three groups (4 rats each) were sham ovariectomized (SHAM) (one group) or ovariectomized (OVX) (two groups) at the same age. Bilateral ovariectomy was performed using a dorsal approach under aseptic conditions with Ketamine-Xylazine anesthesia.^76 One group of OVX animals was treated by estradiol IP injection with 10 μg/kg body weight of 17b-estradiol in benzyl alcohol/corn oil solution (5:95, vol/vol). The injections were three times a week. […]

[12] = chelator-treated Ovx rats, μ-CT
[13] = Ovx rats treated with chelator, lumbar vertebra, pQCT

T1 sequence (P02791 2-175 limits assumed): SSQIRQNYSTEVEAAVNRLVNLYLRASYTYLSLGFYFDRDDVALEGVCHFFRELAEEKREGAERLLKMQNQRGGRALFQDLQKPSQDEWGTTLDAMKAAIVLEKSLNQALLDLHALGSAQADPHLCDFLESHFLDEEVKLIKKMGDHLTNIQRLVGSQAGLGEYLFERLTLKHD
T1 sequence (Q8MIP0 whole entry): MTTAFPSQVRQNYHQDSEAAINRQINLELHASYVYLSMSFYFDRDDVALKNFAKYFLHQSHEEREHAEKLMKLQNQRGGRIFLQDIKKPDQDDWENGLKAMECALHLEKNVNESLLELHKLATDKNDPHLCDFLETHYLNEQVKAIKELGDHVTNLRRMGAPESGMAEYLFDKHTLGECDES

Cc1c(O)c(=O)ccn1C [L1, 1,2-dimethyl-3-hydroxyl-4-pyridinone]
distribution coefficient (DC) [1]: 0.24

Cc1c(O)c(=O)ccn1COCCO [1a]
removing iron from ferritin, compared with DFO [2]: more effective than DFO

CCc1c(O)c(=O)ccn1COCCO [1b]
removing iron from ferritin, compared with DFO [2]: more effective than DFO

CCCCCCCCCCCCCCCCCCCCCCN(CCN(CCN(CCN(CC(=O)O)CC(=O)O)CC(=O)O)CC(=O)O)CC(=O)O [GL22, 1-N-Docosyltriethylenetetraminepentaacetic acid]
iron content in bone, percent of that of Ovx rats without chelation treatment [3]: 59.8% | iron content in bone, percent of that of sham controls [3]: 73.0% | toxicity in treated heavy metal overload animals [4]: without any indications of toxicity | whole body BMD ([5]; OVX rats, GL22 30 μmol/kg orally three times a week, 60 days post-surgery): 0.188 ± 0.004^b g/cm2 | removal of Ca from bone ([5]; judged from BMD of chelator-treated OVX rats versus SHAM rats (Table 5)): not found to remove Ca from bone | BV/TV compared with sham control ([6]; Ovx rats treated with chelator): 85.2% | Tr. Sp. increase compared with sham control ([6]; Ovx rats treated with chelator): 8% | bone volume to tissue volume (BV/TV), higher than untreated Ovx rats [6, 12]: 9.1% | trabecular separation (Tr. Sp.), less than OVX controls [6, 12]: 10.2% | BC (free iron) in bone [7]: 202.7 ± 32.9^b a.u./mg | NC (LLOFR) in bone [7]: 1083 ± 127^b a.u./mg | Trabecula BMD of spine bone versus Ovx group ([8]; FIG. 2A, ANOVA p<0.01, 6 rats per group): significantly higher | Total BMD of spine bone versus Ovx group ([8]; FIG. 2B, ANOVA p<0.05, 6 rats per group): significantly higher | trabecular BMD compared with sham control ([8]; Ovx rats treated with chelator): 91.8% | trabecular BMD of the spine, higher than Ovx rats [8, 13]: 20% | trabecular BMD of the spine, less than sham control [8, 13]: 8.2% | Excreted Fe from feces [9]: 1084.62 ± 88.54 | 241-Am retention, Femur [10]: 4.06 ± 0.08% | 241-Am retention, Humerus [10]: 3.97 ± 0.09% | 241-Am retention, Vertebral body [10]: 4.05 ± 0.23% | 241-Am retention, Whole body ([10]; started 14 days after 241-Am-citrate iv): 50.8 ± 0.7%

C[C@]12CC[C@@H]3c4ccc(O)cc4CC[C@H]3[C@@H]1CC[C@@H]2O [Estrogen, 17b-estradiol]
BC (free iron) of EPR signal of humeral bone [11]: 214.3 ± 11.1^b a.u./mg | NC (LLOFR) of EPR signal of humeral bone [11]: 1357.5 ± 101.4^b a.u./mg
